Data from patent EP3717657B1, “A SYSTEM FOR ASSESSING MICROBIAL SUSCEPTIBILITY TO ANTIBIOTIC AGENTS” (Ascilion AB, priority 2017, dated 2019).
Converted amounts (≈) assume the structure as drawn.

How the values were obtained:
[1] = system: Enterococcus faecalis ATCC 29212; conditions: E.faecalis, cited from earlier work
[2] = system: Staphylococcus aureus ATCC 29213; conditions: S.aureus, cited from earlier work; for MIC EUCAST, range in parentheses: range obtained by EUCAST from ISO 20776-1: 2006; for MIC EUCAST: reference MIC value, EUCAST QC tables Version 7.0, 2017
[3] = system: Staphylococcus aureus (ATCC 29213); test: Antibiotic susceptibility by glucose consumption in culture medium, blood culture bottle inoculum (Example 1); assay type: cell-based; conditions: for Glucose concentration t=60: 60 minutes; for Glucose concentration t=120: 120 minutes; for Glucose concentration t=180: 180 minutes; for Glucose concentration t=240: 240 minutes; for dC/dT: rate of change in glucose concentration; for Glucose concentration t=0: 0 minutes;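 for dC/dT: rate calculated between the 60 and 180 min readings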
In short: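 Bacteria grown in blood culture bottles until positive, diluted 1:100 into cation-adjusted Mueller-Hinton broth with glucose at 1.0 mg/mL plus antibiotic (µg/mL). Glucose read by glucometer at 0–240 min.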

[4] = system: Escherichia coli ATCC 25922; conditions: E.coli, cited from earlier work
[5] = range obtained by EUCAST from ISO 20776-1: 2006
[6] = reference MIC value, EUCAST QC tables Version 7.0, 2017

CN[C@H](CC(C)C)C(=O)N[C@H]1C(=O)N[C@@H](CC(N)=O)C(=O)N[C@H]2C(=O)N[C@H]3C(=O)N[C@H](C(=O)N[C@H](C(=O)O)c4cc(O)cc(O)c4-c4cc3ccc4O)[C@H](O)c3ccc(c(Cl)c3)Oc3cc2cc(c3O[C@@H]2O[C@H](CO)[C@@H](O)[C@H](O)[C@H]2O[C@H]2C[C@](C)(N)[C@H](O)[C@H](C)O2)Oc2ccc(cc2Cl)[C@H]1O [Vancomycin]
MIC EUCAST, range in parentheses [1, 5]: 1 to 4 µg/mL
MIC EUCAST [1, 6]: 2 µg/mL (≈ 1.38 µM)
MIC EUCAST, range in parentheses [2]: 0.5 to 2 µg/mL
MIC EUCAST [2]: 1 µg/mL (≈ 0.69 µM)
F=the rate of change in glucose concentration in relation to the reference ([3]; [Ab] 0,5 µg/mL): 84%
Glucose concentration t=60 ([3]; [Ab] 0,5 µg/mL): 156
Glucose concentration t=120 ([3]; [Ab] 0,5 µg/mL): 142
Glucose concentration t=180 ([3]; [Ab] 0,5 µg/mL): 100
Glucose concentration t=240 ([3]; [Ab] 0,5 µg/mL): 51
dC/dT ([3]; [Ab] 0,5 µg/mL): 28
F=the rate of change in glucose concentration in relation to the reference ([3]; [Ab] 0,25 µg/mL): 75%
Glucose concentration t=60 ([3]; [Ab] 0,25 µg/mL): 142
Glucose concentration t=120 ([3]; [Ab] 0,25 µg/mL): 133
Glucose concentration t=180 ([3]; [Ab] 0,25 µg/mL): 92
Glucose concentration t=240 ([3]; [Ab] 0,25 µg/mL): 42
dC/dT ([3]; [Ab] 0,25 µg/mL): 25
F=the rate of change in glucose concentration in relation to the reference ([3]; [Ab] 1 µg/mL): 96%
Glucose concentration t=60 ([3]; [Ab] 1 µg/mL): 161
Glucose concentration t=120 ([3]; [Ab] 1 µg/mL): 140
Glucose concentration t=180 ([3]; [Ab] 1 µg/mL): 97
Glucose concentration t=240 ([3]; [Ab] 1 µg/mL): 51
dC/dT ([3]; [Ab] 1 µg/mL): 32
F=the rate of change in glucose concentration in relation to the reference ([3]; [Ab] 2 µg/mL): 88%
Glucose concentration t=60 ([3]; [Ab] 2 µg/mL): 160
Glucose concentration t=120 ([3]; [Ab] 2 µg/mL): 143
Glucose concentration t=180 ([3]; [Ab] 2 µg/mL): 101
Glucose concentration t=240 ([3]; [Ab] 2 µg/mL): 53
dC/dT ([3]; [Ab] 2 µg/mL): 30
F=the rate of change in glucose concentration in relation to the reference ([3]; [Ab] 4 µg/mL): 39%
Glucose concentration t=60 ([3]; [Ab] 4 µg/mL): 157
Glucose concentration t=120 ([3]; [Ab] 4 µg/mL): 147
Glucose concentration t=180 ([3]; [Ab] 4 µg/mL): 131
Glucose concentration t=240 ([3]; [Ab] 4 µg/mL): 107
dC/dT ([3]; [Ab] 4 µg/mL): 13
F=the rate of change in glucose concentration in relation to the reference ([3]; [Ab] 8 µg/mL): 6%
Glucose concentration t=60 ([3]; [Ab] 8 µg/mL): 150
Glucose concentration t=120 ([3]; [Ab] 8 µg/mL): 150
Glucose concentration t=180 ([3]; [Ab] 8 µg/mL): 146
Glucose concentration t=240 ([3]; [Ab] 8 µg/mL): 149
dC/dT ([3]; [Ab] 8 µg/mL): 2
F=the rate of change in glucose concentration in relation to the reference ([3]; [Ab] 16 µg/mL): 7%
Glucose concentration t=60 ([3]; [Ab] 16 µg/mL): 157
Glucose concentration t=120 ([3]; [Ab] 16 µg/mL): 153
Glucose concentration t=180 ([3]; [Ab] 16 µg/mL): 152
Glucose concentration t=240 ([3]; [Ab] 16 µg/mL): 149
dC/dT ([3]; [Ab] 16 µg/mL): 3
F=the rate of change in glucose concentration in relation to the reference ([3]; [Ab] 32 µg/mL): 13%
Glucose concentration t=60 ([3]; [Ab] 32 µg/mL): 157
Glucose concentration t=120 ([3]; [Ab] 32 µg/mL): 140
Glucose concentration t=180 ([3]; [Ab] 32 µg/mL): 148
Glucose concentration t=240 ([3]; [Ab] 32 µg/mL): 146
dC/dT ([3]; [Ab] 32 µg/mL): 5

CO[C@@]1(NC(=O)Cc2cccs2)C(=O)N2C(C(=O)O)=C(COC(N)=O)CS[C@@H]21 [Cefoxitin]
MIC EUCAST, range in parentheses [4, 5]: 2 to 8 µg/mL
MIC EUCAST [4, 6]: 4 µg/mL (≈ 9.36 µM)
MIC EUCAST, range in parentheses [2]: 1 to 4 µg/mL
MIC EUCAST [2]: 2 µg/mL (≈ 4.68 µM)
MIC ([3]; Staphylococcus aureus, ATCC29213, S.aureus, 80% threshold of rate of change vs reference, between 60 and 180 minutes, obtained in 4 hours, read-out: MIC Measured): 2 µg/mL (≈ 4.68 µM)
F=the rate of change in glucose concentration in relation to the reference ([3]; [Ab] 0,5 µg/mL): 96%
Glucose concentration t=0 ([3]; [Ab] 0,5 µg/mL): 144
Glucose concentration t=60 ([3]; [Ab] 0,5 µg/mL): 155
Glucose concentration t=120 ([3]; [Ab] 0,5 µg/mL): 130
Glucose concentration t=180 ([3]; [Ab] 0,5 µg/mL): 91
Glucose concentration t=240 ([3]; [Ab] 0,5 µg/mL): 32
dC/dT ([3]; [Ab] 0,5 µg/mL): 32
F=the rate of change in glucose concentration in relation to the reference ([3]; [Ab] 0,25 µg/mL): 91%
Glucose concentration t=0 ([3]; [Ab] 0,25 µg/mL): 143
Glucose concentration t=60 ([3]; [Ab] 0,25 µg/mL): 152
Glucose concentration t=120 ([3]; [Ab] 0,25 µg/mL): 132
Glucose concentration t=180 ([3]; [Ab] 0,25 µg/mL): 91
Glucose concentration t=240 ([3]; [Ab] 0,25 µg/mL): 33
dC/dT ([3]; [Ab] 0,25 µg/mL): 31
F=the rate of change in glucose concentration in relation to the reference ([3]; [Ab] 1 µg/mL): 82%
Glucose concentration t=0 ([3]; [Ab] 1 µg/mL): 147
Glucose concentration t=60 ([3]; [Ab] 1 µg/mL): 155
Glucose concentration t=120 ([3]; [Ab] 1 µg/mL): 133
Glucose concentration t=180 ([3]; [Ab] 1 µg/mL): 100
Glucose concentration t=240 ([3]; [Ab] 1 µg/mL): 40
dC/dT ([3]; [Ab] 1 µg/mL): 28
F=the rate of change in glucose concentration in relation to the reference ([3]; [Ab] 2 µg/mL): 72%
Glucose concentration t=0 ([3]; [Ab] 2 µg/mL): 141
Glucose concentration t=60 ([3]; [Ab] 2 µg/mL): 146
Glucose concentration t=120 ([3]; [Ab] 2 µg/mL): 143
Glucose concentration t=180 ([3]; [Ab] 2 µg/mL): 98
Glucose concentration t=240 ([3]; [Ab] 2 µg/mL): 61
dC/dT ([3]; [Ab] 2 µg/mL): 24
F=the rate of change in glucose concentration in relation to the reference ([3]; [Ab] 4 µg/mL): 16%
Glucose concentration t=0 ([3]; [Ab] 4 µg/mL): 142
Glucose concentration t=60 ([3]; [Ab] 4 µg/mL): 150
Glucose concentration t=120 ([3]; [Ab] 4 µg/mL): 143
Glucose concentration t=180 ([3]; [Ab] 4 µg/mL): 139
Glucose concentration t=240 ([3]; [Ab] 4 µg/mL): 139
dC/dT ([3]; [Ab] 4 µg/mL): 6
F=the rate of change in glucose concentration in relation to the reference ([3]; [Ab] 8 µg/mL): 24%
Glucose concentration t=0 ([3]; [Ab] 8 µg/mL): 136
Glucose concentration t=60 ([3]; [Ab] 8 µg/mL): 157
Glucose concentration t=120 ([3]; [Ab] 8 µg/mL): 160
Glucose concentration t=180 ([3]; [Ab] 8 µg/mL): 141
Glucose concentration t=240 ([3]; [Ab] 8 µg/mL): 149
dC/dT ([3]; [Ab] 8 µg/mL): 8
F=the rate of change in glucose concentration in relation to the reference ([3]; [Ab] 16 µg/mL): 22%
Glucose concentration t=0 ([3]; [Ab] 16 µg/mL): 140
Glucose concentration t=60 ([3]; [Ab] 16 µg/mL): 157
Glucose concentration t=120 ([3]; [Ab] 16 µg/mL): 152
Glucose concentration t=180 ([3]; [Ab] 16 µg/mL): 142
Glucose concentration t=240 ([3]; [Ab] 16 µg/mL): 142
dC/dT ([3]; [Ab] 16 µg/mL): 8
F=the rate of change in glucose concentration in relation to the reference ([3]; [Ab] 32 µg/mL): 27%
Glucose concentration t=0 ([3]; [Ab] 32 µg/mL): 145
Glucose concentration t=60 ([3]; [Ab] 32 µg/mL): 154
Glucose concentration t=120 ([3]; [Ab] 32 µg/mL): 145
Glucose concentration t=180 ([3]; [Ab] 32 µg/mL): 136
Glucose concentration t=240 ([3]; [Ab] 32 µg/mL): 139
dC/dT ([3]; [Ab] 32 µg/mL): 9
